Laboratory results from ChEMBL document CHEMBL5696442, “Discovery of type II inhibitors of TGFβ-activated kinase 1 (TAK1) and mitogen-activated protein kinase kinase kinase kinase 2 (MAP4K2)” (J Med Chem, 2015).
Active and inactive are the calls of the source. No cut-off for these calls is given here.

Tests used:
[1] = biological target: Serine/threonine-protein kinase WNK2 (Homo sapiens) (UniProt Q9Y3S1); assay: Inhibition of Wnk2 Lys2 labeling site in human Huh-7 cells at 1 uM by KiNativ Profiling analysis relative to control; assay type: cell-based
Serine/threonine-protein kinase WNK2 (Homo sapiens), sequence (Q9Y3S1 whole entry): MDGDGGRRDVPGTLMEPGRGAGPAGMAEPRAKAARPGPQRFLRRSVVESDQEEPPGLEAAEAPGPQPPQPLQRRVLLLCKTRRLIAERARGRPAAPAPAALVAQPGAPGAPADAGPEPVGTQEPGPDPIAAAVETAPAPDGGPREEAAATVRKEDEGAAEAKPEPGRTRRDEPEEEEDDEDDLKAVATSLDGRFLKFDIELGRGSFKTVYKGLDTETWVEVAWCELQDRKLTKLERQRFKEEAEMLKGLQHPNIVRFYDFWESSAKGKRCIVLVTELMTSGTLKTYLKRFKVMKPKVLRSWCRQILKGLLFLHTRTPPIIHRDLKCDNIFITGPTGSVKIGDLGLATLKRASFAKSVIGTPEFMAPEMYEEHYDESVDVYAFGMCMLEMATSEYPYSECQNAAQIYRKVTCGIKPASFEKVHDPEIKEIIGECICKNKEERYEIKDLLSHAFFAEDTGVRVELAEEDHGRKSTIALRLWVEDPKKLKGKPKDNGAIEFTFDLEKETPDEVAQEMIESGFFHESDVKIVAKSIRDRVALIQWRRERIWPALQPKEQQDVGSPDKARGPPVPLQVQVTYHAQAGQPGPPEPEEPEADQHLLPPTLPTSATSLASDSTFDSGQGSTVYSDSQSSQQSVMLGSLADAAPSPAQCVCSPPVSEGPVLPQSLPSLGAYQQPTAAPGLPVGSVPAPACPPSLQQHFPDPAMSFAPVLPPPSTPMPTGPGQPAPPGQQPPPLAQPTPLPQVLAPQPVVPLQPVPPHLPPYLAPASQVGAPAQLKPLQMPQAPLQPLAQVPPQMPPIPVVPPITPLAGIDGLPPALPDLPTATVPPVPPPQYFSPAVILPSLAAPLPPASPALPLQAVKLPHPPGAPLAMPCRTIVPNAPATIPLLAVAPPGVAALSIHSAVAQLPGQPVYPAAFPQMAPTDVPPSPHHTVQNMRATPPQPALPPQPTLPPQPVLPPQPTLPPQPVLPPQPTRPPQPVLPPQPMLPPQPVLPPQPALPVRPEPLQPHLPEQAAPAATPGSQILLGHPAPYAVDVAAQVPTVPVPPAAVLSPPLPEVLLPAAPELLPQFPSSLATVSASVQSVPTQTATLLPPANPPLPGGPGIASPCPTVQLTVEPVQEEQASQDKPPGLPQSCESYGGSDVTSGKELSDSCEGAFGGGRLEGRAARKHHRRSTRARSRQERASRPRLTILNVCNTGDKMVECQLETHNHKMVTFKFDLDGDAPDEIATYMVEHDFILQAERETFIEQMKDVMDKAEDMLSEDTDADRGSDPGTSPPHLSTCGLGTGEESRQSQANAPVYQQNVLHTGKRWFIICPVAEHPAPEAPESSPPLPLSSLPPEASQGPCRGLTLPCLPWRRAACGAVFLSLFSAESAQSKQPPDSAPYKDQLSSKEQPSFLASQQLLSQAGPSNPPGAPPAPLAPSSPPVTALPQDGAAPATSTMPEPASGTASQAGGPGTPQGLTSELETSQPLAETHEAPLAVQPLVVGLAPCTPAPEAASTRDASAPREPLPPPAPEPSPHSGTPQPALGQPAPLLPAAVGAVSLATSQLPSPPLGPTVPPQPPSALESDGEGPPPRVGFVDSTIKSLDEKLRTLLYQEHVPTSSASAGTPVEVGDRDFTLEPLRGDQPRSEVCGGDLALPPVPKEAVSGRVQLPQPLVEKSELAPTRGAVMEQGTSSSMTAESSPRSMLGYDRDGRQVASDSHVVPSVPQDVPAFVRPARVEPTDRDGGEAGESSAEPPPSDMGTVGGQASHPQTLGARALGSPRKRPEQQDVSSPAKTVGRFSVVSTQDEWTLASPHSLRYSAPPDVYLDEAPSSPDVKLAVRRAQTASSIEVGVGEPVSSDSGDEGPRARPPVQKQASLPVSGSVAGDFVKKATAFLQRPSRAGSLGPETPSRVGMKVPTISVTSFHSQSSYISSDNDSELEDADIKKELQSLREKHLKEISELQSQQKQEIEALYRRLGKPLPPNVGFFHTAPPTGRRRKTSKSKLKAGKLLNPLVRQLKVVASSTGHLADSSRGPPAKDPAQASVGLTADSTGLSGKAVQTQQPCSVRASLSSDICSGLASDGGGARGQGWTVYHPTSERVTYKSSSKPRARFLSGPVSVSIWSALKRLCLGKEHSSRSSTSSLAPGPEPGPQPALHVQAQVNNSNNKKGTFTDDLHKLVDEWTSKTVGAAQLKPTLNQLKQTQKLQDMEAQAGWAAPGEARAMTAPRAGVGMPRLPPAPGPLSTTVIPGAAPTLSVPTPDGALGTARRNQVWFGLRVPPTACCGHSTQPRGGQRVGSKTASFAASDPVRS

[2] = biological target: 5'-AMP-activated protein kinase catalytic subunit alpha-1 (Homo sapiens) (UniProt Q13131); assay: Inhibition of AMPKa1 ATP Loop labeling site in human Huh-7 cells at 1 uM by KiNativ Profiling analysis relative to control; assay type: cell-based
5'-AMP-activated protein kinase catalytic subunit alpha-1 (Homo sapiens), sequence (Q13131 whole entry, looked up): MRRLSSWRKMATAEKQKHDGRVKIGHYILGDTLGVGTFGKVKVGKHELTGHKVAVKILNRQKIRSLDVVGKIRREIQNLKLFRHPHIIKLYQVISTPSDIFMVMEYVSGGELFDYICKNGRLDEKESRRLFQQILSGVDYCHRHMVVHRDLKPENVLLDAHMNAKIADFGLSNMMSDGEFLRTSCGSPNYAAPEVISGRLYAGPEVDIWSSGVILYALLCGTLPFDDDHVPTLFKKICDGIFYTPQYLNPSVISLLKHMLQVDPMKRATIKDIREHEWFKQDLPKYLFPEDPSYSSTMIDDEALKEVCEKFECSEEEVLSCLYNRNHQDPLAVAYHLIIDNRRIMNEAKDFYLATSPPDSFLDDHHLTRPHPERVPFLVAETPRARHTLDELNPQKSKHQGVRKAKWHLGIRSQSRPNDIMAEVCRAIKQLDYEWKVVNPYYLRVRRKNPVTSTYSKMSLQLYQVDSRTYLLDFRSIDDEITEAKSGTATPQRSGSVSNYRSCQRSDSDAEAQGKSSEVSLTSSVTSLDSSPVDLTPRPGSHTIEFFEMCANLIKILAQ

[3] = biological target: Calcium/calmodulin-dependent protein kinase type II subunit delta (Homo sapiens) (UniProt Q13557); assay: Inhibition of CamK2d K1 labeling site harbouring IPTGQEYAAKIINTK in human Huh-7 cells at 10 uM by KiNativ Profiling analysis relative to control; assay type: cell-based
Calcium/calmodulin-dependent protein kinase type II subunit delta (Homo sapiens), sequence (Q13557 whole entry): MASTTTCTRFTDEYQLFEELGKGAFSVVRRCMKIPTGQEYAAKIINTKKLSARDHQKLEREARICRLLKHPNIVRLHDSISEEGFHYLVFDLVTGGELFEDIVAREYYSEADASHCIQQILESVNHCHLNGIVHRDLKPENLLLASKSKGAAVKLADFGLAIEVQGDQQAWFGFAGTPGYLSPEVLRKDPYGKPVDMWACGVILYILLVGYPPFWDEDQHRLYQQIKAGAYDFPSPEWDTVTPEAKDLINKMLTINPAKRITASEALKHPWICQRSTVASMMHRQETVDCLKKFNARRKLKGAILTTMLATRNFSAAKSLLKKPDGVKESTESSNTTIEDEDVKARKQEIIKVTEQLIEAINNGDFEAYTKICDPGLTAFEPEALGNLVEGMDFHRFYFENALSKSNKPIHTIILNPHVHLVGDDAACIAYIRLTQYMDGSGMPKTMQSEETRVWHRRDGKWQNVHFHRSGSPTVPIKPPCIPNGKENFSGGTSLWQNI

[4] = Inhibition of KHS1/2 K2 labeling site in human Huh-7 cells at 10 uM by KiNativ Profiling analysis relative to control; conditions: condition cancer
[5] = biological target: Tyrosine-protein kinase CSK (Homo sapiens, UniProt P41240); assay: Inhibition of CSK ACT labeling site in human A-375 cells at 5 uM by KiNativ Profiling analysis relative to control; assay type: cell-based
[6] = biological target: Serine/threonine-protein kinase Nek4 (Homo sapiens) (UniProt P51957); assay: Inhibition of NEK4 K2 labeling site in human Huh-7 cells at 10 uM by KiNativ Profiling analysis relative to control; assay type: cell-based
Serine/threonine-protein kinase Nek4 (Homo sapiens), sequence (P51957 whole entry, looked up): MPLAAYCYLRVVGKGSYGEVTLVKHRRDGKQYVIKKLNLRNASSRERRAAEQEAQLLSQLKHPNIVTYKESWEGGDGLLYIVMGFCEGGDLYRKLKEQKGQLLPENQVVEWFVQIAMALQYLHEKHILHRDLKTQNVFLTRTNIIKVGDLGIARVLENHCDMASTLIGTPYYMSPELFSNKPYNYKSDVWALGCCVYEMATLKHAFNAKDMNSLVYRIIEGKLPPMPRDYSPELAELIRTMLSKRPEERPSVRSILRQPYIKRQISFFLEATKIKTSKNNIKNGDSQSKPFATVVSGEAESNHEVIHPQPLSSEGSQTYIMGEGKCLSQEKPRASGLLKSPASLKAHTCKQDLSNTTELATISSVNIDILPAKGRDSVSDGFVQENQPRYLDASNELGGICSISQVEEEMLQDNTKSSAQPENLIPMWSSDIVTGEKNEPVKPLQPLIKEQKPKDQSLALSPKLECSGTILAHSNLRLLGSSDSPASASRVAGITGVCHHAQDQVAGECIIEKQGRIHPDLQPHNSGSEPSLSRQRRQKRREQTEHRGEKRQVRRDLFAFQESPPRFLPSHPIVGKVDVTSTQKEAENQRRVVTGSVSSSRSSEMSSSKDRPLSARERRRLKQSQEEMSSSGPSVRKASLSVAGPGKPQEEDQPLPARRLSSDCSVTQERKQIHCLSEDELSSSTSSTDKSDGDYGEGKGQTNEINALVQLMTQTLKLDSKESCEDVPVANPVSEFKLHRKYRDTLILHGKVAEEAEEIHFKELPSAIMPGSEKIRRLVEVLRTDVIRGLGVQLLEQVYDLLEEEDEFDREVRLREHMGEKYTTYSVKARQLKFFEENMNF

[7] = biological target: Serine/threonine-protein kinase MARK2 (Homo sapiens) (UniProt Q7KZI7); assay: Inhibition of MARK2 K1 labeling site harbouring HILTGKEVAVKIIDKTQLNSSSLQK in human Huh-7 cells at 1 uM by KiNativ Profiling analysis relative to control; assay type: cell-based
Serine/threonine-protein kinase MARK2 (Homo sapiens), sequence (Q7KZI7 whole entry, canonical isoform): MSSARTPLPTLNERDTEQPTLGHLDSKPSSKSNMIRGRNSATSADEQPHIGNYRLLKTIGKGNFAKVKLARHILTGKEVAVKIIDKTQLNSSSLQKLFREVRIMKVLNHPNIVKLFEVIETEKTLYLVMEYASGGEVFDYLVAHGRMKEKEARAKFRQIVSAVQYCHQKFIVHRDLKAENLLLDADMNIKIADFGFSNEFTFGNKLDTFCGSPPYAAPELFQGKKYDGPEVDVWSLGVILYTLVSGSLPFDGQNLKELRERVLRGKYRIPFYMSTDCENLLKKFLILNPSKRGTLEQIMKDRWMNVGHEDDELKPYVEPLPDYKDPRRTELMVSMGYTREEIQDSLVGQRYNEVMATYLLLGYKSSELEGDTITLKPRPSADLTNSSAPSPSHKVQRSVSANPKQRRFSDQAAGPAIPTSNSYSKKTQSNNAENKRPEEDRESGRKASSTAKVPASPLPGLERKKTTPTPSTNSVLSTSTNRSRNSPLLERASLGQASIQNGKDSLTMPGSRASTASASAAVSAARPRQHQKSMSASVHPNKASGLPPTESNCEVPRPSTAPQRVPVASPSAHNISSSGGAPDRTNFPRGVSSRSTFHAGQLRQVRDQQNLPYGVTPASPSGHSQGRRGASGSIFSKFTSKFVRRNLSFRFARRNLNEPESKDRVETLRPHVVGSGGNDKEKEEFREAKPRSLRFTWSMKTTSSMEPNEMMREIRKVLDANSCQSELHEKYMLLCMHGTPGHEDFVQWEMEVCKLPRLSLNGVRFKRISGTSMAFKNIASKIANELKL

[8] = biological target: Phosphatidylinositol 4,5-bisphosphate 3-kinase catalytic subunit beta isoform (Homo sapiens) (UniProt P42338); assay: Inhibition of PIK3CB (unknown origin) at 1 uM by Ambit Kinomescan binding assay relative to control; values are per cent of control
[9] = biological target: Serine/threonine-protein kinase tousled-like 2 (Homo sapiens) (UniProt Q86UE8); assay: Inhibition of TLK2 Lys1 labeling site in human A-375 cells at 0.5 uM by KiNativ Profiling analysis relative to control; assay type: cell-based
[10] = biological target: Megakaryocyte-associated tyrosine-protein kinase (Homo sapiens) (UniProt P42679); assay: Inhibition of CTK (unknown origin) at 1 uM by Ambit Kinomescan binding assay relative to control; values are per cent of control
[11] = biological target: Activin receptor type-1-like (Homo sapiens) (UniProt P37023); assay: Inhibition of ACVRL1 (unknown origin) at 1 uM by Ambit Kinomescan binding assay relative to control
[12] = biological target: T1, Serine/threonine-protein kinase D1 (Homo sapiens) (UniProt Q15139); assay: Inhibition of PRKD1 (unknown origin) at 1 uM by Ambit Kinomescan binding assay relative to control
T1 sequence (whole entry): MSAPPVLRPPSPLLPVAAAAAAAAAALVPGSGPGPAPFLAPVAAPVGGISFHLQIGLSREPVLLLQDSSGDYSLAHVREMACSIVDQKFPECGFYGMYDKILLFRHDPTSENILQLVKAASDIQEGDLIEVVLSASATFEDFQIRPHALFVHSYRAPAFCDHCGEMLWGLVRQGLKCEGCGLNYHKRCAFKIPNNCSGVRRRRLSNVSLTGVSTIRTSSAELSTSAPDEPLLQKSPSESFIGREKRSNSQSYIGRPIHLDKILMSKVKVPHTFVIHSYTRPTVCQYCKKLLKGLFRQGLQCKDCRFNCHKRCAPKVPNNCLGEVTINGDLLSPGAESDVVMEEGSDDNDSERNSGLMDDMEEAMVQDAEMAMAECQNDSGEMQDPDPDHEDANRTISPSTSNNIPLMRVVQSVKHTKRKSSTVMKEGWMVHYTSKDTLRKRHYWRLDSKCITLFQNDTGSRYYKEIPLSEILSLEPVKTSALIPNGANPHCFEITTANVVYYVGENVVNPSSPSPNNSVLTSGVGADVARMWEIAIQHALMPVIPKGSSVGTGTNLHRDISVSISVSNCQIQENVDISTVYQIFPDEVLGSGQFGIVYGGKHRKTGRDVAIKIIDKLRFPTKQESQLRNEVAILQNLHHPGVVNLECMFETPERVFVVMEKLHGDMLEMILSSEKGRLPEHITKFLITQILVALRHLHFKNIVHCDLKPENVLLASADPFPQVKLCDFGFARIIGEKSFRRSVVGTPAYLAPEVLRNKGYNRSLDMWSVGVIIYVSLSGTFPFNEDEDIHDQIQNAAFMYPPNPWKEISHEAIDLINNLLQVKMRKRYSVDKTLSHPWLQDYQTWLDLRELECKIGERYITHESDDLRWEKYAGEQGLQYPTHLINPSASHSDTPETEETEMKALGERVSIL

[13] = biological target: Serine/threonine-protein kinase OSR1 (Homo sapiens) (UniProt O95747); assay: Inhibition of OSR1 (unknown origin) at 1 uM by Ambit Kinomescan binding assay relative to control; values are per cent of control
[14] = Inhibition of p70S6K Lys2 labeling site in human A-375 cells at 0.5 uM by KiNativ Profiling analysis relative to control; conditions: condition cancer
[15] = biological target: T2, Inhibitor of nuclear factor kappa-B kinase subunit alpha (Homo sapiens) (UniProt O15111); assay: Inhibition of IKK-alpha (unknown origin) at 1 uM by Ambit Kinomescan binding assay relative to control; values are per cent of control
T2 sequence (whole entry): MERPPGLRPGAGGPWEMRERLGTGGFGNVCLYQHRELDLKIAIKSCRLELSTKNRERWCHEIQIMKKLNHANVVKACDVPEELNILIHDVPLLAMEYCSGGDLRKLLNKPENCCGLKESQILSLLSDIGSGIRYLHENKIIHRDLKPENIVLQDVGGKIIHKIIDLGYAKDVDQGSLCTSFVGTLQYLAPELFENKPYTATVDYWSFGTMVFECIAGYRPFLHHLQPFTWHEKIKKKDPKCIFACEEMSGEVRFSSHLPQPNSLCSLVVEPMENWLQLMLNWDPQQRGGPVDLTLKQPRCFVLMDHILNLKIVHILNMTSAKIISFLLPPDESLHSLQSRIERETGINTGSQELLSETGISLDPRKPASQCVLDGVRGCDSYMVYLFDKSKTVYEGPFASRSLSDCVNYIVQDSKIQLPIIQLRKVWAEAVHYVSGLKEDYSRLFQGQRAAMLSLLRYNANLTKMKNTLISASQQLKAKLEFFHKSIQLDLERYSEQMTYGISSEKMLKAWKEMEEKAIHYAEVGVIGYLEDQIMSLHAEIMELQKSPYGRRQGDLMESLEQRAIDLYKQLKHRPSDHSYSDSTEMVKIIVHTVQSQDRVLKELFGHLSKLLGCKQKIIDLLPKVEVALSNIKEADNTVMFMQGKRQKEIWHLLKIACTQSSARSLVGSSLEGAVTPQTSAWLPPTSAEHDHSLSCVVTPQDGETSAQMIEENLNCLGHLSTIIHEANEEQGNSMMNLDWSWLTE

## CNc1cc(Oc2cc(C(=O)Nc3cc(N4CCN(C)CC4)cc(C(F)(F)F)c3)ccc2C)ncn1
[1]
  inhibition: 15.3%
[2]
  inhibition: -3.8%

## CCN1CCN(Cc2ccc(NC(=O)c3ccc(C)c(Oc4ccnc5[nH]ccc45)c3)cc2C(F)(F)F)CC1
[3]
  inhibition: -7.6%
[4]
  inhibition at 10 µM: 6.6%
[5]
  inhibition: 57.7%
[6]
  inhibition: 11.4%
[7]
  inhibition: inactive

## CCN1CCN(Cc2ccc(NC(=O)c3ccc(C)c(/C=C/c4cnc5[nH]ccc5c4OC)c3)cc2C(F)(F)F)CC1
[8]
  residual activity: 100%
[9]
  inhibition: 30.2%
[10]
  residual activity: 60%
[11]
  inhibition: 100%
[12]
  inhibition: 100%
[13]
  residual activity: 100%
[14]
  inhibition at 0.5 µM: -32.9%
[15]
  residual activity: 2%
